Assay results: patent US20190153024A1, “NOVEL SALTS AND POLYMORPHS OF SCY-078” (priority 2015, published 2019)

Columns and labels:
[1] = Kinetic solubility of SCY-078 freebase (MeOH desolvate, amorphous freebase); assay type: physicochemical; details: for Form: residual solid by XRPD; for kinetic solubility (in words): room temperature
Procedure: Kinetic Solubility of SCY-078 Freebase: The kinetic solubility of SCY-078 MeOH desolvate and SCY-078 amorphous freebase was evaluated in SGF media, FaSSIF media, FeSSIF media, dextrose buffer (pH 5.5), phosphate buffer (pH 6.0), and phosphate buffer (pH 7.5) at room temperature. First, solid SCY-078 MeOH desolvate or SCY-078 amorphous freebase (˜15 mg) was weighed into a 4-mL vial. Then the relevant media (3.0 mL) was added and the suspensions were stirred on a rolling incubator (25 rpm) at room temperature for 1 hour, 4 hours, and 24 hours respectively. After stirring, 0.5 mL of suspension was centrifuged and filtered (0.45 μm). The residual solids were analyzed by XRPD, and the supernatant was measured by HPLC and pH meter.

[2] = Chemical and physical stability of SCY-078 salts on storage (25° C./60% RH, 40° C./75% RH, 60° C.); assay type: physicochemical
From the text: For all compounds tested other than the trifluoroacetate salts (Type A and B) and the HCl Type I and II salts, the conditions and parameters used for measuring solubility are shown in Table 2A and for measuring stability are showing in Table 3A. The conditions and parameters used for the solubility of the trifluoroacetate salts (Type A and B) and the HCl Type I and II salts are shown in Table 2B and for stability are shown in Table 3B.

[3] = Physical and chemical stability of trifluoroacetate Types A and B and HCl Type I for 1, 2, 4 and 8 weeks; assay type: physicochemical
Procedure: High Power Liquid Chromatography (HPLC) Method—An Agilent 1260 HPLC with DAD detector was utilized to test solubility or to test purity and stability. […] System suitability was tested by injecting standard solutions five times in each sample sequence, and the relative standard deviation of the peak areas was less than 2%.
Physical and chemical stability evaluation of trifluoroacetate Type A, trifluoroacetate Type B, and HCl Type I was performed at 25° C./60% RH, 40° C./75% RH and 60° C. for 1, 2, 4 and 8 weeks. In the experiments, approximately 20 mg of solid was placed into a 1.5-mL glass vial. The vials were stored under 25° C./60% RH (uncapped), 40° C./75% RH (uncapped) and 60° C. (capped) conditions for 8 weeks. XRPD analysis was then employed to check the crystalline form of the solid, and HPLC was utilized to determine the purity profile at 1, 2, 4 and 8 weeks. […] The solid form change of trifluoroacetate Type A at 2 and 4 weeks was postulated to the air-exposure when the sample was taken out for XRPD characterization.

[4] = Kinetic solubility of trifluoroacetate Types A and B and HCl Type I (alternative procedure: SGF, FaSSIF and FeSSIF alternative media, acetate pH 5.5, phosphate pH 6.0 alternative media); details: residual solid by XRPD
Procedure: An alternative media (“FaSSIF alternative media”) was used to study the trifluoroacetate salts (Type A and B) and the HCl Type I salt. More specifically, the media was prepared by weighing 0.17 g of sodium phosphate monobasic (NaH2PO4, anhydrous), 0.021 g of sodium hydroxide, and 0.31 g of sodium chloride into a 50-mL volumetric flask and was dissolve with approximately 48 mL of purified water. The pH was adjusted to exactly 6.5 using 1 M HCl or 1 M NaOH and diluted to volume with purified water. 0.11 g of SIF powder was then added, stirred and sonicated until all the powder was completely dissolved. The solution was equilibrated for 2 hours at RT before use. The solution can be stored at RT for 48 hours or 4° C. for 7 days and should be equilibrated to RT before use
An alternative media (“FeSSIF alternative media”) was used to study the trifluoroacetate salts (Type A and B) and the HCl Type I salt. More specifically, the media was prepared by transferring 0.41 mL of glacial acid and weighing 0.20 g of sodium hydroxide, 0.59 g of sodium chloride into a 50-mL volumetric flask. This was dissolved with approximately 48 mL of purified water. The pH was adjusted to exactly 5.0 using 1 M HCl or 1 M NaOH and diluted to volume with purified water. 0.56 g of SIF powder was added, stirred and sonicated until all the powder is completely dissolved. The solution can be stored at RT for 48 hours or 4° C. for 7 days and should be equilibrated to RT before use.
Acetate Buffer (pH 5.5) Preparation—The acetate buffer (pH 5.5) used for the trifluoroacetate salts (Type A and B) and the HCl Type I salt was prepared by placing 0.60 g sodium acetate (NaC2H3O2.3H2O) in a 100-mL volumetric flask, adding 3 mL of 2 M acetic acid solution, and then adding purified water to volume.
An alternative media (“phosphate (pH 6.0) alternative media”) was used to study the trifluoroacetate salts (Type A and B) and the HCl Type I salt. More specifically, the media was prepared by dissolving 2.72 g of 0.2 M monobasic potassium phosphate (KH2PO4) in purified water, and diluting with purified water t 100 mL. 0.8 g of 0.2 M sodium hydroxide in purified water was diluted with purified water to 100 mL. Then 50 mL of the 0.2 M monobasic potassium phosphate solution was placed in a 200-mL volumetric flask, 5.6 mL of 0.2 M sodium hydroxide solution was added, and then purified water was added to volume.
The trifluoroacetate salts (Type A and B) and the HCl Type I salt were tested using the following alternative procedure. First, 15 mg, 36 mg or 90 mg solid was weighted into a 4-mL plastic tube, and 3 mL of relevant media was added before leaving the suspension on a rolling incubator (25 r/min). For SCF, 90 mg of solid was used. For FaSSIF, acetate buffer (pH 5.5), and phosphate buffer (pH 6.0), 15 mg solid was used. For FeSSIF, 36 mg of solid was used. 1.0 mL aliquot of the suspension was sampled for centrifugation with the supernatant submitted for HPLC and pH measurement and solid for XRPD characterization at 1 hr, 4 hr and/or 24 hrs.
The solubility of trifluoroacetate Type A, Type B and HCl Type I was measured in SGF at ambient temperature. Approximately 90 mg of solid sample was weighted into a 4-mL centrifuge tube, and 3 mL of SGF buffer was added before leaving the suspension on a rolling incubator (25 r/min). 1.0 mL aliquot of the suspension was sampled for centrifugation (10000 rpm, 3 mins) the supernatant was analyzed by HPLC and pH measurement and solid by XRPD characterization at 1 hr, 4 hr and 24 hrs, respectively.
The solubility of trifluoroacetate Type A, Type B and hydrochloride Type I was measured in the FaSSIF alternative media at ambient temperature. Approximately 15 mg of solid sample was weighted into a 4-mL plastic tube, and 3 mL of the media was added before leaving the suspension on a rolling incubator (25 r/min).

[5] = 25° C./60% RH, open dish, 4 days
[6] = 25° C./60% RH (uncapped), 1 week
[7] = 25° C./60% RH (uncapped), 2 weeks
[8] = 25° C./60% RH (uncapped), 4 weeks
[9] = 25° C./60% RH (uncapped), 8 weeks
[10] = 40° C./75% RH (uncapped), 1 week
[11] = 40° C./75% RH (uncapped), 2 weeks
[12] = 40° C./75% RH (uncapped), 4 weeks
[13] = 40° C./75% RH (uncapped), 8 weeks

SMILES: CC(C)[C@@H](C)[C@@]1(C)CC[C@]2(C)[C@H]3CC[C@@H]4[C@@]5(COC[C@]4(C)[C@@H](OC[C@](C)(N)C(C)(C)C)[C@H](n4ncnc4-c4ccncc4)C5)C3=CC[C@@]2(C)[C@@H]1C(=O)O [Desolv.]
- Form ([1]; FaSSIF, 1 hour): NF 1
- Form ([1]; FaSSIF, 4 hours): NF 1
- Form ([1]; FaSSIF, 24 hours): NF 1
- Form ([1]; FeSSIF, 1 hour): NF 1
- Form ([1]; FeSSIF, 4 hours): NF 1
- Form ([1]; FeSSIF, 24 hours): NF 1
- Form ([1]; pH 5.5 buffer, 4 hours): NF 2
- Form ([1]; pH 5.5 buffer, 24 hours): NF 2
- Form ([1]; pH 6.0 buffer, 4 hours): NF 1
- Form ([1]; pH 6.0 buffer, 24 hours): NF 3
- Form ([1]; pH 7.5 buffer, 4 hours): Desolv.
- Form ([1]; pH 7.5 buffer, 24 hours): Desolv.

SMILES: CC(C)[C@@H](C)[C@@]1(C)CC[C@]2(C)[C@H]3CC[C@@H]4[C@@]5(COC[C@]4(C)[C@@H](OC[C@](C)(N)C(C)(C)C)[C@H](n4ncnc4-c4ccncc4)C5)C3=CC[C@@]2(C)[C@@H]1C(=O)O.O=C(O)CC(O)(CC(=O)O)C(=O)O [Type S]
- Impurity % by HPLC ([2]; 25° C./60% RH, open dish, 1 week): 0.03%
- Solid form ([2]; 25° C./60% RH, open dish, 1 week, **Peak shifts were observed): Type S**
- Impurity % by HPLC ([2]; 40° C./75% RH, open dish, 1 week): 0.03%
- Solid form ([2]; 40° C./75% RH, open dish, 1 week, **Peak shifts were observed): Type S**
- Solid form ([2]; 60° C. closed, 1 week): Type S
- Impurity % by HPLC ([2]; 60° C., closed dish, 1 week): 0.11%
- Impurity % by HPLC ([2]; Initial): 0.10%

SMILES: CC(C)[C@@H](C)[C@@]1(C)CC[C@]2(C)[C@H]3CC[C@@H]4[C@@]5(COC[C@]4(C)[C@@H](OC[C@](C)(N)C(C)(C)C)[C@H](n4ncnc4-c4ccncc4)C5)C3=CC[C@@]2(C)[C@@H]1C(=O)O [SCY-078 MeOH desolvate]
- kinetic solubility (in words) ([1]; FaSSIF and pH 5.5, pH 6.0, pH 7.5 buffers): only sparingly soluble
- solid form change during solubility measurement ([1]; FeSSIF, FaSSIF, pH 5.5 and 6.0 buffers): Solid form change was observed
- kinetic solubility (in words) ([1]; SGF and FeSSIF): high solubility

SMILES: CC(C)[C@@H](C)[C@@]1(C)CC[C@]2(C)[C@H]3CC[C@@H]4[C@@]5(COC[C@]4(C)[C@@H](OC[C@](C)(N)C(C)(C)C)[C@H](n4ncnc4-c4ccncc4)C5)C3=CC[C@@]2(C)[C@@H]1C(=O)O [Amorph.]
- Form ([1]; FaSSIF, 1 hour): Amorph.
- Form ([1]; FaSSIF, 4 hours): Amorph.
- Form ([1]; FaSSIF, 24 hours): Amorph.
- Form ([1]; FeSSIF, 1 hour): Amorph.
- Form ([1]; FeSSIF, 4 hours): Amorph.
- Form ([1]; FeSSIF, 24 hours): Amorph.
- Form ([1]; pH 5.5 buffer, 4 hours): Amorph.
- Form ([1]; pH 5.5 buffer, 24 hours): Amorph.
- Form ([1]; pH 6.0 buffer, 4 hours): Amorph.
- Form ([1]; pH 6.0 buffer, 24 hours): Amorph,
- Form ([1]; pH 7.5 buffer, 4 hours): Amorph.
- Form ([1]; pH 7.5 buffer, 24 hours): Amorph.

SMILES: CC(C)[C@@H](C)[C@@]1(C)CC[C@]2(C)[C@H]3CC[C@@H]4[C@@]5(COC[C@]4(C)[C@@H](OC[C@](C)(N)C(C)(C)C)[C@H](n4ncnc4-c4ccncc4)C5)C3=CC[C@@]2(C)[C@@H]1C(=O)O.O=C(O)CC(O)(CC(=O)O)C(=O)O [Type M]
- Impurity % by HPLC [2, 5]: 0.39%
- Solid form [2, 5]: Type M
- Impurity % by HPLC ([2]; 40° C./75% RH, open dish, 4 days): 0.00%
- Solid form ([2]; 40° C./75% RH, open dish, 4 days, *One peak change was observed): Type M*
- Impurity % by HPLC ([2]; 60° C. closed, 4 days): 0.63%
- Solid form ([2]; 60° C. closed, 4 days): Type M
- Impurity % by HPLC ([2]; Initial): 0.42%

SMILES: CC(C)[C@@H](C)[C@@]1(C)CC[C@]2(C)[C@H]3CC[C@@H]4[C@@]5(COC[C@]4(C)[C@@H](OC[C@](C)(N)C(C)(C)C)[C@H](n4ncnc4-c4ccncc4)C5)C3=CC[C@@]2(C)[C@@H]1C(=O)O.O=C(O)C(F)(F)F [TFA Type A]
- HPLC purity [3, 6]: 99.9%
- Solid form [3, 6]: Type A
- HPLC purity [3, 7]: 99.9%
- Solid form [3, 7]: Type B
- HPLC purity [3, 8]: 99.9%
- Solid form [3, 8]: Type A + B
- Solid form ([3]; 25° C./60% RH (uncapped), 6 weeks): Type A
- HPLC purity [3, 9]: 99.9%
- Solid form [3, 9]: Type A
- HPLC purity [3, 10]: 99.9%
- Solid form [3, 10]: Type A
- HPLC purity [3, 11]: 99.9%
- Solid form [3, 11]: Type B
- HPLC purity [3, 12]: 99.9%
- Solid form [3, 12]: Type A + B
- Solid form ([3]; 40° C./75% RH (uncapped), 6 weeks): Type A
- HPLC purity [3, 13]: 99.9%
- Solid form [3, 13]: Type A
- HPLC purity ([3]; 60° C. (capped), 1 week): 99.9%
- Solid form ([3]; 60° C. (capped), 1 week): Type A
- HPLC purity ([3]; 60° C. (capped), 2 weeks): 99.9%
- Solid form ([3]; 60° C. (capped), 2 weeks): Type B
- HPLC purity ([3]; 60° C. (capped), 4 weeks): 99.9%
- Solid form ([3]; 60° C. (capped), 4 weeks): Type A + B
- Solid form ([3]; 60° C. (capped), 6 weeks): Type A
- HPLC purity ([3]; 60° C. (capped), 8 weeks): 99.9%
- Solid form ([3]; 60° C. (capped), 8 weeks): Type A
- Initial HPLC purity ([3]; Initial): 99.9%
- Form change ([4]; FaSSIF alternative media, 1 hr): No
- Form change ([4]; FaSSIF alternative media, 4 hrs): No
- Form change ([4]; FaSSIF alternative media, 24 hrs): No
- Form change ([4]; SGF, 1 hr): No
- Form change ([4]; SGF, 4 hrs): No
- Form change ([4]; SGF, 24 hrs): No
- Form change ([4]; acetate buffer (pH 5.5), 4 hrs): No
- Form change ([4]; acetate buffer (pH 5.5), 24 hrs): No
